Holding throughout (format): in vivo
Assay [1] concerns male CD1 albino mice. Nature of the assay: Locomotor activity (horizontal and vertical) in the mouse. The protocol: The animals were placed in groups of 20 in plexiglass cages (38×24×18 cm) and kept in a ventilated animal facility where the temperature was maintained at 21±1° C. The animals had free access to water and food; artificial lighting established a day/night cycle (daytime between 7:00 a.m. and 7:00 p.m.). Experiments were conducted between 11:00 a.m. and 6:00 p.m. […] The solutions were stabilized with Cremophor EL (Sigma) to a final concentration of 15%. The solutions were injected by intraperitoneal route in a dose of 10 ml/kg. Before each test, the animals were isolated for 20 minutes in plexiglass cages (27×13×13 cm); they had food at their disposal. […] Photoelectric sensors in the chambers measured the horizontal and vertical activity of the animals, expressed as the number of interrupted beams, and the data was analyzed using a software application (Omnitech Electronics Inc., Columbus, Ohio, USA). […] Animals were placed in the activity monitoring system immediately after receiving the injection. The chambers were cleaned after each animal's test.

The subject of assay [2] is male CD1 albino mice. Nature of the assay: Hole-board test in the mouse. Particulars: 50 mg/kg; for number of edges explored / number of holes explored: 20 minutes after injection, vs solvent. The protocol:
The hole-board test investigates curiosity and is negatively affected by anxiety. This apparatus, placed 60 cm above the floor, consists of a square platform of opaque plastic, 40 cm on each side, with 16 evenly distributed holes of such size that an animal is able to pass its head through. The animals were injected and then isolated for 20 minutes before being placed at the center of the platform. The number of holes and edges explored by each animal was counted. The apparatus was cleaned after each animal's test.

For assay [3], the system named is male CD1 albino mice. Nature of the assay: Black-white box test in the mouse. The conditions noted are these: 50 mg/kg; for amount of time spent in the lighted compartment: 20 minutes after injection, vs controls. The protocol: The black-white box test measures the state of anxiety of animals as a function of their aversion to light. The apparatus consists of two compartments of the same size (length=21 cm, width=15 cm, height=25 cm), one painted white and illuminated by a 40 W bulb, the other painted black and closed with a cover. The animal can pass from one compartment to the other via to an opening 5 cm-square in the lower portion of the partition. After the injection, the animals were isolated for 20 minutes and then placed in the black compartment with their head facing the corner opposite the opening. Using a mirror placed above the apparatus, the time before first entering the lit compartment, the number of times entering and the time spent in the lighted compartment were measured. The two compartments were cleaned between each test.

Assay [4] has as its system male CD1 albino mice. Nature of the assay: Raised cross-shaped labyrinth test in the mouse. The conditions noted are these: for anxiogenic effect in the raised cross-shaped labyrinth test / number of times the mice entered the open arm: 50 mg/kg; for number of times the mice entered the open arm: five minutes recording. An excerpt: The raised cross-shaped labyrinth test measures the animals' anxiety level based on its spontaneous aversion to voids (80). The apparatus is composed of four arms, placed at right angles, each measuring 18×6 cm; it rests on a pedestal 60 cm above the floor. Two of the arms have 6 cm-high side walls and are laid out end to end; these are the “closed” arms. […] After receiving their injections, the animals were isolated for twenty minutes and then placed in the labyrinth, at the center of the cross, with their head in the direction of a closed arm. Movements by the animals were recorded for five minutes by a video camera connected to image analysis software (Videotrack). The labyrinth was cleaned after each animal's test.

Assay [5] has as its system male Wistar rats. Nature of the assay: Vogel conflict test in the rat. Particulars: intraperitoneal, 1, 10, 25 and 50 mg/kg. The protocol: Experiments were performed using male Wistar rats weighing 180 g to 280 g according to the procedure described by Vogel et al. (Psychopharmacologia, 1971, 21: 1-7). Animals were deprived of water for 48 hours and then individually placed in a plexiglass chamber (15×32×34 cm) whose floor consisted of conducting metal bars spaced 1 cm apart. In the center of one of the chamber's walls was placed a metal cup connected to an electric shock generator (1.7 mA; 1 s).
During the test, the animal, which is left free to explore the apparatus, receives an electric shock each time it consumes water from the cup. A researcher blind to the treatment received by the animal counts the number of times that the animal consumes water and is punished by the electric shock. An increase in the number of times an animal consumes water indicates an anxiolytic effect, whereas a reduction in this number indicates an anxiogenic effect.
Paraxanthine was dissolved under heating in sodium benzoate (30 mg/ml) with the addition of Cremophor EL to a final concentration of 15% and administered by intraperitoneal route at doses of 1 mg/kg, 10 mg/kg, 25 mg/kg and 50 mg/kg. Clobazam was used as the reference anxiolytic; it was dispersed in a 0.2% hydroxypropylmethylcellulose solution and administered by intraperitoneal route at a dose of 32 mg/kg.

For assay [6], the system named is NMRI mice. Nature of the assay: Four-plate test in the mouse. Particulars: intraperitoneal, 25 mg/kg (P<0.05). The procedure: Experiments were performed using NMRI mice weighing 20 g to 30 g according to the method described by Aron et al. (Neuropharmacology, 1971, 10:459-469). Animals were placed in a plastic chamber whose floor consisted of four metal plates independently connected to an electric shock generator (2.5 mA; 1.5 s). The animal is initially left free to explore the apparatus for 15 seconds, after which it receives an electric shock each time it crosses between two metal plates. An increase in the number of crossings indicates anxiolytic activity, whereas a reduction in this number indicates anxiogenic activity.
Paraxanthine was dissolved under heating in sodium benzoate (30 mg/ml) with the addition of Cremophor EL to a final concentration of 15% and administered by intraperitoneal route at doses of 1 mg/kg, 10 mg/kg, 25 mg/kg and 50 mg/kg. Clobazam was used as the reference anxiolytic; it was dispersed in a 0.2% hydroxypropylmethylcellulose solution and administered by intraperitoneal route at a dose of 16 mg/kg.

Entries after “also recorded” stand apart in the source; their conditions may differ.

As for `Cn1c(=O)c2c(ncn2C)n(C)c1=O` [caffeine, 1,3,7-Trimethylxanthine], in assay [1] (intraperitoneal, 10 mg/kg), the “duration of stimulation of horizontal locomotor activity” value is “at least one hour”. Moreover, the vertical locomotor activity result in assay [1] (intraperitoneal, 10 mg/kg, significant only 30 minutes after the injection (P<0.05)) was “stimulated the animals' vertical locomotor activity”. Also, the horizontal locomotor activity result in assay [1] (intraperitoneal, 10 mg/kg, within the first 10 minutes (P<0.05)) is “stimulated animals' horizontal locomotor activity”. Also, the “duration of stimulation of horizontal locomotor activity” value in assay [1] (intraperitoneal, 25 mg/kg) was 40 min. Besides, in assay [1] (intraperitoneal, 25 mg/kg, 10 minutes after the injection (P<0.05)), the horizontal locomotor activity entry is reported as “stimulated this activity”. In addition, in assay [1] (intraperitoneal, 100 mg/kg), the “duration of decrease of vertical activity” value came to 40 min. For the same compound, in assay [1] (intraperitoneal, 100 mg/kg, from the first measurement period (P<0.05)), the vertical locomotor activity result is given as “vertical activity decreased relative to that of the controls”. Moreover, the “horizontal activity for one hour (cumulative)” value in assay [1] (intraperitoneal, 60 minutes) was “stimulated by caffeine only at doses of 10 mg/kg (P<0.01) and 25 mg/kg (P<0.05)”. Besides, in assay [1] (intraperitoneal, doses lower than 10 mg/kg or higher than 25 mg/kg, vs solvent alone), the horizontal locomotor activity entry is “no significant difference”. Further, in assay [1] (same conditions), the “range of doses with stimulating effect on locomotor activity” value is 10 to 25 mg/kg and the “stimulating effect on locomotor activity compared with paraxanthine” value is recorded as “the effect is less”. Besides, in assay [2], the “anxiogenic effect in the hole-board test” value is on record as “has an anxiogenic effect; also recorded: had an anxiogenic effect”, the “number of edges explored” value is recorded as “significantly decreased” and the “number of holes explored” value is listed as “significantly decreased”. For the same compound, in assay [3], the “anxiolytic effect in the black-white box test” value is reported as “does not; also recorded: did not have an anxiolytic effect” and the “amount of time spent in the lighted compartment” value is recorded as “did not change”. In assay [4], the “anxiogenic effect in the raised cross-shaped labyrinth test” value was “is anxiogenic; also recorded: has an anxiogenic effect” and the “number of times the mice entered the open arm” value was “reduced the number of times the mice entered the open arm”.

Regarding `Cn1c(=O)[nH]c2ncn(C)c2c1=O` [paraxanthine, 1,7-dimethyl-3,7-dihydro-1H-purine-2,6-dione], the “stimulating effect on locomotor activity” value in assay [1] (doses from 1 mg/kg up to 50 mg/kg) is on record as “dose-dependant stimulating effect”. Besides, the “duration of stimulation of horizontal locomotor activity” value in assay [1] (intraperitoneal, 1 mg/kg) is 30 min. Also, the horizontal locomotor activity entry in assay [1] (intraperitoneal, 1 mg/kg, from the first 10-minute measurement period, vs solvent (P<0.05 or P<0.01)) is recorded as “stimulated horizontal locomotor activity”. In addition, the vertical locomotor activity result in assay [1] (intraperitoneal, comparable to horizontal activity, effect of 1 mg/kg more difficult to demonstrate) is given as “stimulated the animals' vertical locomotor activity”. Also, in assay [1] (intraperitoneal, doses higher than 1 mg/kg), the “duration of stimulation of horizontal locomotor activity” value is on record as “at least one hour”. Besides, the horizontal locomotor activity entry in assay [1] (intraperitoneal, doses higher than 1 mg/kg (P<0.01 or P<0.001)) is on record as “the effect was more marked”. In assay [2], the “anxiogenic effect in the hole-board test” value was “not the case; also recorded: did not”, the “number of edges explored” value is on record as “did not have any effect” and the “number of holes explored” value was “did not have any effect”. For the same compound, in assay [3], the “anxiolytic effect in the black-white box test” value is recorded as “has an anxiolytic effect; also recorded: exhibited an anxiolytic effect” and the “amount of time spent in the lighted compartment” value is on record as “increased the amount of time spent in the lighted compartment”. Besides, in assay [3] (vs animals treated with caffeine (P<0.05)), the “number of times entering the lighted compartment” value was “went into the lighted compartment more often than animals treated with caffeine”. For the same compound, in assay [4], the “anxiogenic effect in the raised cross-shaped labyrinth test” value was “not the case” and the “number of times the mice entered the open arm” value is recorded as “had no effect”. The “anxiolytic effect in the raised cross-shaped labyrinth test” value in assay [4] (50 mg/kg (high doses)) was “has an anxiolytic effect”. Further, in assay [4] (increasing doses from 1 mg/kg to 50 mg/kg (P<0.05 at 50 mg/kg)), the “time spent by the animals in the open arm” value is reported as “increased until a significant effect was exhibited at a dose of 50 mg/kg”. Also, in assay [5], the “anxiogenic effect in the Vogel conflict test” value is given as “did not have an anxiogenic effect; also recorded: did not demonstrate an anxiogenic effect” and the “number of times animals consumed water” value is recorded as “did not decrease”. For the same compound, in assay [6], the “anxiolytic activity (number of crossings between two plates)” value was “has anxiolytic activity; also recorded: exhibited anxiolytic activity”.

The values above are taken from US20090325984A1, “USE OF 1,7-DIMETHYLXANTHINE FOR THE MANUFACTURE OF A NON-ANXIOGENIC PSYCHOANALEPTIC DRUG FOR THE TREATMENT OF A NEUROPSYCHIATRIC DISORDER” (Pierre Fabre Medicament, priority 2006, published 2009).
